Measured values published in US10363229B2, “Methods and compositions for the treatment of cancer” (priority 2009, dated 2019).

Legend:
[1] = tested on: M3 Cloudman melanoma cells; assay: Live cell video microscopy of melanoma cells (morphology, contact inhibition); assay type: cell-based, mouse; conditions: equimolar concentration substituted for 2% methyl sulfone
Protocol: (§1) Cloudman S-91 mouse melanoma cells (sub-clone M-3, CCL 53.1; American Type Culture Collection, Rockville, Md.) were grown in RMPI medium supplemented with 10% fetal bovine serum (Invitrogen, Inc) and 5% penicillin-streptomycin (Invitrogen, Inc). Mouse breast cancer cells (66Cl-1; American Type Culture Collection, Rockville, Md.) that are estrogen-receptor negative were grown in DMEM medium supplemented with 10% fetal bovine serum (Invitrogen, Inc) and 5% penicillin/streptomycin (Invitrogen, Inc). Human T-cell leukemic lymphocytes (CEM; American Type Culture Collection, Rockville, Md.) were grown in MEM medium supplemented with 7% fetal calf serum. Cultures were passaged twice a week.
Cells were plated on 35 mm tissue culture dishes at concentration of 10^5 cells/plate, unless stated otherwise, and incubated at 37° C., 5% CO2. After 24 hours, methyl sulfone (0-10% in medium) was added to appropriate plates and immediately videotaped with a Nikon TE300 inverted microscope equipped with a 10×0.25 NA Plan Achromat objective lens. Control cells (no drug) were videotaped as described above. Time series (10 min) of phase contrast images were acquired at a video rate of 1 frame/5 s with a Watec-902B CCD video camera (Watec Corp., Japan) via the stream acquisition option of Metamorph image acquisition and analysis software (Universal Imaging Corp., Downington, Pa.). During recordings, cells were kept at 37° C. with 10 mM Hepes, pH 7.4. Time series of cells +/−2% methyl sulfone were obtained every 24-48 hours for up to 6 weeks.
(§2) M3 Cloudman melanoma cells were plated into culture dishes containing RPMI medium. After 24 hour media was changed to control medium (no drug) or to media containing different concentrations of methyl sulfone (1-10% methyl sulfone in RPMI medium). Cells were examined by live cell video microscopy immediately after adding drug and every 24 hours up to 144 hours.
The possibility that the data generated from treating cells with methyl sulfone was a nonspecific effect due to changes in extracellular osmolarity was considered. To test this possibility an equimolar concentration of urea was substituted for 2% methyl sulfone; urea has a chemical structure and dipolar moment that is similar to methyl sulfone. […] We next replaced 2% methyl sulfone with an equimolar concentration of dimethyl sulfoxide (DMSO).

[2] = tested on: Cloudman S-91 mouse melanoma cells (sub-clone M-3); assay: Annexin V-FITC/propidium iodide apoptosis assay in melanoma cells; assay type: cell-based
Protocol: as §1
Early and late apoptosis was assessed with the Annexin V-FITC Apoptosis Detection Kit from PharMingen (Becton-Dickinson, San Diego, Calif.). Images were obtained at the Center for Cell Analysis and Modeling, University of Connecticut Health Center, Farmington, Conn., with an Axioplan CCD Microscope equipped with a 40×1.3 NA FL objective lens and Photometrics PXL-EEV37 high speed digital cooled CCD camera via Metamorph image acquisition and analysis software (Universal Imaging Corp., Downington, Pa.).
as §2
Briefly, melanoma cells (Cloudman M3 cell line) were plated at 10^5 cells/ml in RPMI medium. After 24 hours, medium was replaced with RPMI containing different concentrations (grams/volume) of MMS, MES and EES. After 24 hours, apoptosis was assayed using the Becton-Dickinson Annexin V-FITC/Propidium Iodide Kit and a Nikon fluorescent microscope as described by the manufacturer.

[3] = tested on: CEM cells, leukemic T-cell lymphocytes; assay: Apoptosis of leukemic lymphocytes, FITC-annexinV/propidium iodide microscopy; assay type: cell-based, human; conditions: 10^−7 M VNB, 20 hours
Protocol: as §1
CEM cells, leukemic T-cell lymphocytes obtained from a child with acute lymphocytic leukemia, were maintained in Petri dishes in MEM (minimal essential medium) with 7% fetal calf serum in a 5% CO2 incubator at 37° C. For experiments, methyl sulfone was added to the medium at concentrations from 0-6.0%. In control cells, no methyl sulfone was added. Cells (2×10^6 per ml) were incubated for 20 hrs in the presence or absence of methyl sulfone, and then assayed for apoptosis using FITC-annexinV/propidium iodide microscopy. Methyl sulfone was also compared to the anti-microtubule drug, vinblastine. Vinblastine (VNB) and its derivative, vincristine, are standard treatments for acute lymphocytic leukemia, as well as other cancers. We used the concentration of VNB that is found in the blood of subjects being treated with this drug (10^−7 M) (6,7).

[4] = tested on: microtubules in melanoma cells; assay: Immunofluorescence of microtubules, incl. vinblastine stability test; assay type: cell-based, mouse; conditions: 10^−7 M vinblastine, no methyl sulfone
Protocol: Cells were plated in 6-100 mm tissue culture plates, each containing 1 polylysine-coated 10-well slide, or plated onto polylysine-coated coverslips. Once cells were approximately 50% confluent, 2% methyl sulfone was added to cells for 10, 30, 60, 90, and 120 minutes. At each time point cells were placed in microtubule stabilizing buffer ( ) for 10 minutes followed by incubation in −20° C. methanol for 5 minutes. Cells were washed twice in 0.1% Triton X-100 in PBS at room temperature, then incubated with mouse monoclonal anti-alpha-tubulin antibody (Santa Cruz Biotech, Calif.; diluted 1/200 in 1% BSA/PBS) for 1.5 hours. Cells were washed 5 times in 0.1% Triton X-100/PBS, 3 minutes each. Cells were incubated with secondary antibody (Alexa Fluor 568 rabbit anti-mouse antibody; diluted 1/100 in 1%/PBS) for 30 minutes in the dark. Cells were washed five times in 0.1% Triton X-100/PBS, three minutes each. Cells were washed two times in PBS at 2 minute intervals and incubated with DAPI (1 μg/ml in PBS) for 5 minutes at room temperature and in the dark. Cells were washed in PBS for one minute. SlowFade was added to glass slides, coverslips were placed cell side down and sealed with nail polish. Microtubules were viewed at the Center for Cell Analysis and Modeling, University of Connecticut Health Center, Farmington, Conn., with an Axioplan CCD Microscope equipped with a 40×1.3 NA FL objective lens and Photometrics PXL-EEV37 high speed digital cooled CCD camera via Metamorph image acquisition and analysis software (Universal Imaging Corp., Downington, Pa.).
One assay to test stability of microtubules is to give cells increasing concentrations of a microtubule-disassembly drug and use immunofluorescence microscopy to assess microtubule lengths (Caron et al). A higher concentration of drug will be required to disassemble the more stabilized microtubules. We used different concentrations of the anti-microtubule drug, vinblastine, to assess microtubule stability in control cells and cells incubated with 2% methyl sulfone.

Structure (SMILES) | effect on melanoma cells of osmolarity control substance [1] | window of concentrations between killing cancer cells and harming normal cells [2] | further results
C[S+](C)[O-] [DMSO, dimethyl sulfoxide, reference compound] | had no effect | – | –
CCS(=O)(=O)CC [EES, ethyl ethyl sulfone, reference compound] | – | narrow differential | –
CCS(C)(=O)=O [MES, methyl ethyl sulfone, reference compound] | – | narrow differential | –
NC(N)=O [urea, reference compound] | induced necrotic death | – | –
CC[C@]1(O)C[C@@H]2CN(CCc3c([nH]c4ccccc34)[C@@](C(=O)OC)(c3cc4c(cc3OC)N(C)[C@H]3[C@@](O)(C(=O)OC)[C@H](OC(C)=O)[C@]5(CC)C=CCN6CC[C@]43[C@@H]65)C2)C1 [vinblastine, reference compound] | – | – | apoptotic leukemic cells [3]: 48%; microtubules in control cells [4]: largely gone
